In patent US4559323A, “A41030 Antibiotics” (Eli Lilly and Company, priority 1984, dated 1985):
≈ marks a conversion by molar mass, not a printed value.

Tests used:
pseudorabies = conditions: in vitro at 20 mcg./ml.
[1] = tested on: Streptococcus pneumoniae Park I; test: Disc-plate sensitivity procedure; format: cell-based
S. pneumoniae = test: Experimental bacterial infection in mice, subcutaneous ED50; format: in vivo; conditions: two doses subcutaneously
Protocol: (§1) All of the A41030 factors tested have shown in vivo antimicrobial activity against experimental bacterial infections. When two doses of test compound were administered subcutaneously to mice in illustrative infections, the activity observed is measured as an ED50 value [effective dose in mg./kg. to protect fifty percent of the test animals: See Warren Wick, et al., J. Bacteriol. 81, 233-235 (1961)].

S. pyogenes = test: as above; format: in vivo; conditions: two doses subcutaneously
Protocol: as §1

Staph. aureus = test: as above; format: in vivo; conditions: two doses subcutaneously
Protocol: as §1

[2] = tested on: Streptococcus sp. (Group D) 9960; test: Disc-plate sensitivity procedure; format: cell-based
Escherichia coli = test: Agar-dilution MIC; format: cell-based; conditions: Table 17; 24 hours; Escherichia coli EC14
[3] = tested on: Bacteroides melaninogenicus; test: Agar-dilution MIC (anaerobes); format: cell-based; conditions: Table 14; Bacteroides melaninogenicus 2736
[4] = tested on: Streptococcus sp. Group B; test: Agar-dilution MIC; format: cell-based; conditions: Table 18, 24 hours
Text: The in vitro activity of antibiotic A41030 factors A and B against a number of representative aerobic, gram-positive bacteria, including Streptococcus sp. Group D, has been determined using a standard agar-dilution assay.

Shigella flexneri = conditions: Table 11; Shigella flexneri SH-4
Text: The agar-dilution procedure described by the International Collaborative study (ICS) group was used to determine the minimum inhibitory concentrations (MIC's).

[5] = mice, administered intraperitoneally
[6] = tested on: Streptococcus pyogenes C203; test: Disc-plate sensitivity procedure; format: cell-based
Staphylococcus aureus = test: Disc-plate sensitivity procedure; format: cell-based; conditions: Table 8
Hemophilus influenzae = test: Agar-dilution MIC; format: cell-based
[7] = tested on: Haemophilus parainfluenzae; test: Agar-dilution MIC; format: cell-based; conditions: Table 18, 24 hours
Viridans streptococcus = test: Agar-dilution MIC; format: cell-based; conditions: Table 11

NC1C(=O)NC2Cc3ccc(c(Cl)c3)Oc3cc4cc(c3O)Oc3ccc(cc3Cl)C(O)C3NC(=O)C(NC(=O)C4NC(=O)C(NC2=O)c2cc(O)cc(c2)Oc2cc1ccc2O)c1cc(Cl)c(O)c(c1)-c1c(O)cc(O)cc1C(C(=O)O)NC3=O (stereo not drawn) [A41030 factor A]
activity against pseudorabies (pseudorabies): shown activity
Zone diameter ([1]; Table 8, 10 μg./disc): 15.0 mm
Zone diameter ([1]; Table 8, 100 μg./disc): 17.0 mm
ED50 (S. pneumoniae): 1.68 mg/kg
ED50 (S. pyogenes): 2.8 mg/kg
ED50 (Staph. aureus): 1.4 mg/kg
Zone diameter ([2]; Table 8, 10 μg./disc): 16.4 mm
Zone diameter ([2]; Table 8, 100 μg./disc): 20.5 mm
MIC (Escherichia coli): 128 µg/mL (≈ 104 µM)
MIC [3]: 4 µg/mL (≈ 3.24 µM)
MIC ([4]; Streptococcus sp. Group B 5): 1 µg/mL (≈ 0.811 µM)
MIC ([4]; Streptococcus sp. Group B 14): 0.06 µg/mL (≈ 0.0486 µM)
MIC (Shigella flexneri): 64 µg/mL (≈ 51.9 µM)
LD50 [5]: > 300 mg/kg
acute toxicity [5]: > 300 mg/kg
Zone diameter ([6]; Table 8, 10 μg./disc): 12.0 mm
Zone diameter ([6]; Table 8, 100 μg./disc): 15.0 mm
Zone diameter (Staphylococcus aureus; S. aureus 3055 benzylpenicillin-susceptible, 10 μg./disc): 17.2 mm
Zone diameter (Staphylococcus aureus; S. aureus 3055 benzylpenicillin-susceptible, 100 μg./disc): 20.8 mm
Zone diameter (Staphylococcus aureus; S. aureus 3074 benzylpenicillin-resistant, 10 μg./disc): 16.7 mm
Zone diameter (Staphylococcus aureus; S. aureus 3074 benzylpenicillin-resistant, 100 μg./disc): 19.8 mm
Zone diameter (Staphylococcus aureus; S. aureus 3130 benzylpenicillin- and methicillin-resistant, 10 μg./disc): 17.4 mm
Zone diameter (Staphylococcus aureus; S. aureus 3130 benzylpenicillin- and methicillin-resistant, 100 μg./disc): 21.4 mm
MIC (Hemophilus influenzae; Table 9, strain 75-312): 8 µg/mL (≈ 6.49 µM)
MIC (Hemophilus influenzae; Table 9, strain 75-313): 16 µg/mL (≈ 13 µM)
MIC (Hemophilus influenzae; Table 9, strain 75-364): 16 µg/mL (≈ 13 µM)
MIC (Hemophilus influenzae; Table 9, strain 75-465): 32 µg/mL (≈ 25.9 µM)
MIC (Hemophilus influenzae; Table 9, strain 75-19300): 16 µg/mL (≈ 13 µM)
MIC (Hemophilus influenzae; Table 9, strain 75-90383): 16 µg/mL (≈ 13 µM)
MIC (Hemophilus influenzae; Table 9, strain 4842): 8 µg/mL (≈ 6.49 µM)
MIC (Hemophilus influenzae; Table 9, strain A. Hall): 16 µg/mL (≈ 13 µM)
MIC (Hemophilus influenzae; Table 9, strain Bruno): 16 µg/mL (≈ 13 µM)
MIC (Hemophilus influenzae; Table 9, strain G. Newton): 32 µg/mL (≈ 25.9 µM)
MIC (Hemophilus influenzae; Table 9, strain Howard): 16 µg/mL (≈ 13 µM)
MIC (Hemophilus influenzae; Table 9, strain Miller): 16 µg/mL (≈ 13 µM)
MIC (Hemophilus influenzae; Table 9, strain O. Steele): 16 µg/mL (≈ 13 µM)
MIC (Hemophilus influenzae; Table 9, strain P. Wylie): 16 µg/mL (≈ 13 µM)
MIC (Hemophilus influenzae; Table 9, strain R251): 16 µg/mL (≈ 13 µM)
MIC (Hemophilus influenzae; Table 9, strain R259): 16 µg/mL (≈ 13 µM)
MIC (Hemophilus influenzae; Table 9, strain R272): 16 µg/mL (≈ 13 µM)
MIC (Hemophilus influenzae; Table 9, strain R274): 16 µg/mL (≈ 13 µM)
MIC (Hemophilus influenzae; Table 9, strain S. Ford): 16 µg/mL (≈ 13 µM)
MIC (Hemophilus influenzae; Table 17, 24 hours, Haemophilus influenzae 251): 2 µg/mL (≈ 1.62 µM)
MIC (Hemophilus influenzae; Table 17, 24 hours, Haemophilus influenzae Brun): 8 µg/mL (≈ 6.49 µM)
MIC (Hemophilus influenzae; Table 18, 24 hours, Haemophilus influenzae 76): 4 µg/mL (≈ 3.24 µM)
MIC (Hemophilus influenzae; Table 18, 24 hours, Haemophilus influenzae 312): 2 µg/mL (≈ 1.62 µM)
MIC (Hemophilus influenzae; Table 18, 24 hours, Haemophilus influenzae 4842): 2 µg/mL (≈ 1.62 µM)
MIC (Hemophilus influenzae; Table 18, 24 hours, Haemophilus influenzae 16836): 4 µg/mL (≈ 3.24 µM)
MIC (Hemophilus influenzae; Table 18, 24 hours, Haemophilus influenzae Bond): 2 µg/mL (≈ 1.62 µM)
MIC (Hemophilus influenzae; Table 18, 24 hours, Haemophilus influenzae C.L.): 4 µg/mL (≈ 3.24 µM)
MIC (Hemophilus influenzae; Table 18, 24 hours, Haemophilus influenzae Mx366): 2 µg/mL (≈ 1.62 µM)
MIC (Hemophilus influenzae; Table 18, 24 hours, Haemophilus influenzae Mx371): 2 µg/mL (≈ 1.62 µM)
MIC ([7]; Haemophilus parainfluenzae 7901): 16 µg/mL (≈ 13 µM)
MIC ([7]; Haemophilus parainfluenzae 9796): 16 µg/mL (≈ 13 µM)
MIC (Viridans streptococcus; Viridans streptococcus SM-1134): 0.5 µg/mL (≈ 0.405 µM)
MIC (Viridans streptococcus; Viridans streptococcus SSI-910): 0.25 µg/mL (≈ 0.203 µM)
MIC (Viridans streptococcus; Viridans streptococcus SSII-895): 0.25 µg/mL (≈ 0.203 µM)
